# Experimental data: PubChem BioAssay (NCI)
#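 Interpolation was linear, between the two tested concentrations surrounding the appropriate level; five concentrations were tested over 48 hours in 96-well plates. GI50: concentration for 50% inhibition of growth. TGI denotes the concentration required for complete inhibition of growth.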
# Assays:
# Experiment in all cases: growth of human tumour cells (NCI), 48 h
# M14 melanoma = system: M14 melanoma
# MOLT-4 leukemia = system: MOLT-4 leukemia
# DU-145 prostate = system: DU-145 prostate
# SK-MEL-5 melanoma = system: SK-MEL-5 melanoma
# OVCAR-4 ovarian = system: OVCAR-4 ovarian
# SW-620 colon = system: SW-620 colon
# U251 CNS = system: U251 CNS
# SF-295 CNS = system: SF-295 CNS
# 786-0 renal = system: 786-0 renal
# A498 renal = system: A498 renal
# SR leukemia = system: SR leukemia
# SNB-19 CNS = system: SNB-19 CNS
# CCRF-CEM leukemia = system: CCRF-CEM leukemia
# NCI-H226 lung = system: NCI-H226 lung
# ACHN renal = system: ACHN renal
# MALME-3M melanoma = system: MALME-3M melanoma
# HCT-116 colon = system: HCT-116 colon
# OVCAR-8 ovarian = system: OVCAR-8 ovarian
# IGROV1 ovarian = system: IGROV1 ovarian
# OVCAR-5 ovarian = system: OVCAR-5 ovarian
# TK-10 renal = system: TK-10 renal
# MDA-MB-231 breast = system: MDA-MB-231 breast
# K-562 leukemia = system: K-562 leukemia
# NCI-H522 lung = system: NCI-H522 lung
# T-47D breast = system: T-47D breast
# NCI-H460 lung = system: NCI-H460 lung
# MDA-MB-435 = system: MDA-MB-435
# HOP-62 NSCLC = system: HOP-62 NSCLC
# KM12 colon = system: KM12 colon
# HT29 colon = system: HT29 colon
# UACC-62 melanoma = system: UACC-62 melanoma
# LOX IMVI melanoma = system: LOX IMVI melanoma
# RPMI-8226 leukemia = system: RPMI-8226 leukemia
# BT-549 breast = system: BT-549 breast
# UO-31 renal = system: UO-31 renal
# HL-60(TB) leukemia = system: HL-60(TB) leukemia
# NCI-H23 lung = system: NCI-H23 lung
# A549 NSCLC = system: A549 NSCLC
# OVCAR-3 ovarian = system: OVCAR-3 ovarian
# SN12C renal = system: SN12C renal
# SK-OV-3 ovarian = system: SK-OV-3 ovarian
# HCC-2998 colon = system: HCC-2998 colon
# PC-3 prostate = system: PC-3 prostate
# SNB-75 CNS = system: SNB-75 CNS
# COLO 205 colon = system: COLO 205 colon
# CAKI-1 renal = system: CAKI-1 renal
# NCI/ADR-RES ovarian = system: NCI/ADR-RES ovarian
# SK-MEL-28 melanoma = system: SK-MEL-28 melanoma
# HCT-15 colon = system: HCT-15 colon
# HS 578T breast = system: HS 578T breast
# SF-539 CNS = system: SF-539 CNS
# SF-268 CNS = system: SF-268 CNS
# SK-MEL-2 melanoma = system: SK-MEL-2 melanoma
# MCF7 breast = system: MCF7 breast
# EKVX NSCLC = system: EKVX NSCLC
smiles,measurement,setting,value
O=C1OCC2=C1C(c1ccccc1)c1cc3c(cc1N2CCO)OCCO3 (stereo unspecified),GI50,M14 melanoma,0.23 µM
same,TGI,M14 melanoma,1.66 µM
same,GI50,MOLT-4 leukemia,0.236 µM
same,TGI,MOLT-4 leukemia,> 10.4 µM
same,GI50,DU-145 prostate,0.304 µM
same,TGI,DU-145 prostate,2.73 µM
same,GI50,SK-MEL-5 melanoma,0.181 µM
same,TGI,SK-MEL-5 melanoma,7.18 µM
same,GI50,OVCAR-4 ovarian,0.587 µM
same,TGI,OVCAR-4 ovarian,> 50 µM
same,GI50,SW-620 colon,0.224 µM
same,TGI,SW-620 colon,> 50 µM
same,GI50,U251 CNS,0.279 µM
same,TGI,U251 CNS,> 50 µM
same,GI50,SF-295 CNS,0.183 µM
same,GI50,786-0 renal,0.288 µM
same,TGI,786-0 renal,> 50 µM
same,GI50,A498 renal,0.188 µM
same,TGI,A498 renal,4.05 µM
same,GI50,SR leukemia,0.14 µM
same,TGI,SR leukemia,2.57 µM
same,GI50,SNB-19 CNS,0.921 µM
same,TGI,SNB-19 CNS,> 16.8 µM
same,GI50,CCRF-CEM leukemia,0.276 µM
same,TGI,CCRF-CEM leukemia,> 50 µM
same,GI50,NCI-H226 lung,10.8 µM
same,TGI,NCI-H226 lung,> 50 µM
same,GI50,ACHN renal,0.493 µM
same,TGI,ACHN renal,> 50 µM
same,GI50,MALME-3M melanoma,> 50 µM
same,TGI,MALME-3M melanoma,> 50 µM
same,GI50,HCT-116 colon,0.226 µM
same,TGI,HCT-116 colon,> 18.7 µM
same,GI50,OVCAR-8 ovarian,0.651 µM
same,TGI,OVCAR-8 ovarian,> 50 µM
same,GI50,IGROV1 ovarian,0.161 µM
same,TGI,IGROV1 ovarian,1.41 µM
same,GI50,OVCAR-5 ovarian,2.12 µM
same,TGI,OVCAR-5 ovarian,> 50 µM
same,GI50,TK-10 renal,1.27 µM
same,GI50,MDA-MB-231 breast,1.14 µM
same,TGI,MDA-MB-231 breast,11.5 µM
same,GI50,K-562 leukemia,0.191 µM
same,TGI,K-562 leukemia,> 50 µM
same,GI50,NCI-H522 lung,0.0593 µM
same,TGI,NCI-H522 lung,0.165 µM
same,GI50,T-47D breast,0.22 µM
same,TGI,T-47D breast,> 50 µM
same,GI50,NCI-H460 lung,0.193 µM
same,TGI,NCI-H460 lung,1.96 µM
same,GI50,MDA-MB-435,0.113 µM
same,TGI,MDA-MB-435,0.32 µM
same,GI50,HOP-62 NSCLC,0.763 µM
same,TGI,HOP-62 NSCLC,> 50 µM
same,GI50,KM12 colon,0.207 µM
same,TGI,KM12 colon,6.19 µM
same,GI50,HT29 colon,0.168 µM
same,TGI,HT29 colon,1.61 µM
same,TGI,UACC-62 melanoma,> 50 µM
same,GI50,LOX IMVI melanoma,0.36 µM
same,TGI,LOX IMVI melanoma,> 50 µM
same,GI50,RPMI-8226 leukemia,0.392 µM
same,TGI,RPMI-8226 leukemia,> 50 µM
same,GI50,BT-549 breast,0.465 µM
same,TGI,BT-549 breast,> 13.7 µM
same,GI50,UO-31 renal,0.3 µM
same,TGI,UO-31 renal,> 35.3 µM
same,GI50,HL-60(TB) leukemia,0.118 µM
same,TGI,HL-60(TB) leukemia,0.406 µM
same,GI50,NCI-H23 lung,0.448 µM
same,TGI,NCI-H23 lung,> 50 µM
same,GI50,A549 NSCLC,0.62 µM
same,TGI,A549 NSCLC,> 40.1 µM
same,GI50,OVCAR-3 ovarian,0.132 µM
same,TGI,OVCAR-3 ovarian,0.312 µM
same,GI50,SN12C renal,4.46 µM
same,TGI,SN12C renal,> 50 µM
same,GI50,SK-OV-3 ovarian,0.348 µM
same,TGI,SK-OV-3 ovarian,13.4 µM
same,GI50,HCC-2998 colon,0.182 µM
same,TGI,HCC-2998 colon,0.722 µM
same,GI50,PC-3 prostate,0.182 µM
same,TGI,PC-3 prostate,> 50 µM
same,GI50,SNB-75 CNS,0.121 µM
same,TGI,SNB-75 CNS,0.427 µM
same,GI50,COLO 205 colon,0.24 µM
same,TGI,COLO 205 colon,0.978 µM
same,GI50,CAKI-1 renal,0.293 µM
same,TGI,CAKI-1 renal,> 30.3 µM
same,GI50,NCI/ADR-RES ovarian,0.377 µM
same,TGI,NCI/ADR-RES ovarian,1.93 µM
same,GI50,SK-MEL-28 melanoma,8.24 µM
same,TGI,SK-MEL-28 melanoma,> 50 µM
same,GI50,HCT-15 colon,0.518 µM
same,TGI,HCT-15 colon,> 50 µM
same,GI50,HS 578T breast,0.206 µM
same,TGI,HS 578T breast,10.8 µM
same,GI50,SF-539 CNS,0.298 µM
same,GI50,SF-268 CNS,0.617 µM
same,TGI,SF-268 CNS,> 35.3 µM
same,GI50,SK-MEL-2 melanoma,0.156 µM
same,TGI,SK-MEL-2 melanoma,0.432 µM
same,GI50,MCF7 breast,0.175 µM
same,TGI,MCF7 breast,48.6 µM
same,GI50,EKVX NSCLC,0.962 µM
same,TGI,EKVX NSCLC,> 50 µM
